The nature of the test: Inhibition of IL-17 in human PBMC.

Drawing on BindingDB's records for PubMed 35324195 (Sichuan University, 2022), this text covers IC50 for one molecule.

The molecule `COc1cc(OC)c2c(=O)[nH]c(-c3cc(C)c(OCCN4CCCC4)c(C)c3)nc2c1` returned a half-maximal inhibitory concentration (IC50) of 1.3 µM. In other words, the single-digit micromolar range.

In general, IC50 refers to the concentration that gives 50% inhibition. The low end stands for higher potency, the high end for lower potency.
